Earlier results in article PMC5381245 (Theranostics, 2017).

System: tumor
Details: 2 h p.i.

Substance | tumor uptake [%ID/g] | tumor-to-kidney uptake ratio | tumor-to-kidneys uptake ratio
NOTA-GlyGly-Nle-CycMSHhex (sidechain bridge or staple) [^64Cu-labeled NOTA-GlyGly-Nle-CycMSHhex] | 13.4 ± 1.6 |  | 
^111In-DOTA-GlyGly-Nle-CycMSHhex (sidechain bridge or staple) |  | 2.8 | 
^111In-DOTA-Nle-CycMSHhex (sidechain bridge or staple) | 19.4 ± 1.7 |  | 2.0
